The values that follow come from patent US11459586B2, “Methods for increasing efficiency of nuclease-mediated gene editing in stem cells” (President and Fellows of Harvard College, priority 2016, dated 2022).

Read-outs that look alike come from different tables or passages of the source. Peptide text beside a SMILES is read from it. * marks the point of attachment. Cbz = O=C(OCc1ccccc1)*; CH2F = FC*

Data set [1] concerns human iPSC. Nature of the data set: mThy1 gene targeting in hiPSC with chemical inhibitors added after nucleofection (flow cytometry). Format: cell-based. To be noted: for mThy1 gene targeting efficiencies: PGP1 hiPSC, administered after plasmid nucleofection, indicated concentrations (FIG. 9D). Here is the method:
FIGS. 9A-G. Effects of chemical and genetic inhibitors on mThy1 gene targeting in hiPSC. FIG. 9A. Mouse Thy1 gene targeting scheme. Human iPSC were nucleofected with the mThy1 targeting vector system plasmids and analyzed by flow cytometry five days later. The percentages of mThy1^+hThy1^−, mThy1^+hThy1^+, and mThy1^−hThy1^− cells for each sample (gated on live single cells) are graphed. Lines mark the percentage values for the control sample. FIGS. 9B-9D. Human iPSC were nucleofected with: 2 μg mThy1 targeting vector; 0.5 μg Cas9 plasmid; and 1.5 μg of sgRNA plasmids. The sample was divided into multiple wells and cultured in plain media (mTeSR1+10 μM Y-27632 ROCK inhibitor) supplemented with the indicated chemical inhibitor for three days. 20 μM pifithrin α, 200 μM peptide V5 (VPMLK, SEQ ID NO:31), 200 μM peptide control (IPMIK, SEQ ID NO:32), 50 μM TEMPOL, or the indicated concentrations of SCR7 or L755507 were used. FIG. 9B, mThy1^+hThy1^− (bottom portion of each bar in each graph), mThy1^+hThy1^+ (top portion of each bar in each graph). FIG. 9C, mThy1^+hThy1^− (bottom portion of each bar in each graph), mThy1^+hThy1^+ (top portion of each bar in left and center graphs, middle portion of each bar in right graph), and mThy1^−hThy1^− (top portion of each bar in right graph). FIG. 9D, mThy1^+hThy1^− (bottom portion of each bar in each graph), mThy1^+hThy1^+ (center portion of each bar in each graph), and mThy1^−hThy1^− (top portion of each bar in each graph). FIGS. 9E-9F. Human iPSC were nucleofected with: 2 μg mThy1 targeting vector plasmid; 0.5 μg Cas9 plasmid; 1 μg of sgRNA plasmids; and 0.5 μg of plasmid expressing the indicated DNA repair gene or pUC19 control (“Cas9 only”). For FIG. 9E, cultures were treated with 50 μM zVAD and 10 μM SB203580 post transfection. mThy1^+hThy1^− (bottom portion of each bar in each graph), mThy1^+hThy1^+ (top portion of each bar in left and center graphs, middle portion of each bar in right graph), and mThy1^−hThy1^− (top portion of each bar in right graph). FIG. 9F, mThy1^+hThy1^− (bottom portion of each bar in each graph), mThy1^+hThy1^+ (top portion of each bar in left and center graphs, middle portion of each bar in right graph), and mThy1^−hThy1^− (top portion of each bar in right graph). FIG. 9G. Human iPSC were nucleofected with: 2 μg mThy1 targeting vector plasmid; 0.5 μg Cas9 plasmid; and 1.5 μg of sgRNA plasmids. The indicated viral inhibitor genes were cloned into the Cas9 expression vector following an IRES sequence. Cultures were supplemented with 50 μM zVAD post transfection. mThy1^+hThy1^− (bottom portion of each bar in each graph), mThy1^+hThy1^+ (top portion of each bar in left and center graphs, middle portion of each bar in right graph), and mThy1^−hThy1^− (top portion of each bar in right graph).
FIGS. 10A-F. Effect of Caspase and p38 MAPK inhibitors on survival and gene targeting of human iPSC. FIG. 10A and FIG. 10B. Mouse Thy1 gene targeting scheme. Human iPSC were nucleofected with the mThy1 targeting vector, Cas9 nuclease, and Thy1 sgRNA expressing plasmid or pUC19 empty vector. Nucleofected cells were evenly divided and plated onto plain media (mTeSR1+10 μM Y-27632 ROCK inhibitor), or media supplemented with the indicated chemical inhibitor. For specific caspase inhibitors, the principal caspase they target is noted in parentheses. As observed in previous reports, most of the nuclease-mediated cell death occurred between days 1-2 post transfection, and the proportions of mThy1^+ cells remained stable beyond day 5. FIG. 10C. Two days after nucleofection, viable cells were counted. Error bars indicate s.e.m. of technical duplicates. Lines mark the count levels for nucleofected cells in plain media with or without sgRNA. FIG. 10D. Five days after transfection, cells were analyzed by flow cytometry for mThy1 and hThy1 expression. The percent of mThy1^+hThy1^− (bottom of each bar) and mThy1^+hThy1^+ (top of each bar) cells of live single cells is indicated. […]

The subject of data set [2] is human iPSC. Type of data set: cell-based. To be noted: for rescue of hiPSC from cell death (anoikis) after nucleofection: viable cells two days after nucleofection, sgRNA plasmid or pUC19 control. Here is the method: FIGS. 10A-F. Effect of Caspase and p38 MAPK inhibitors on survival and gene targeting of human iPSC. FIG. 10A and FIG. 10B. Mouse Thy1 gene targeting scheme. Human iPSC were nucleofected with the mThy1 targeting vector, Cas9 nuclease, and Thy1 sgRNA expressing plasmid or pUC19 empty vector. Nucleofected cells were evenly divided and plated onto plain media (mTeSR1+10 μM Y-27632 ROCK inhibitor), or media supplemented with the indicated chemical inhibitor. For specific caspase inhibitors, the principal caspase they target is noted in parentheses. […] FIG. 10C. Two days after nucleofection, viable cells were counted. Error bars indicate s.e.m. of technical duplicates. Lines mark the count levels for nucleofected cells in plain media with or without sgRNA. FIG. 10D. Five days after transfection, cells were analyzed by flow cytometry for mThy1 and hThy1 expression. The percent of mThy1^+hThy1^− (bottom of each bar) and mThy1^+hThy1^+ (top of each bar) cells of live single cells is indicated. Lines mark the levels for cells in plain media. […] FIG. 10E. FACS plots of human iPSC transfected with the mThy1 targeting vector, Cas9 nuclease, and Thy1 Left and Right sgRNAs. Cells were subsequently cultured for 5 days in plain media±50 μM zVAD and ±10 μM SB203580. FIG. 10F. Human iPSC cultures were single cell FACS sorted into 96-well tissue culture plates containing a MEF feeder layer and hES media supplemented with SMC4 inhibitors±50 μM zVAD for eight days. Ten days after sorting, the number of surviving iPSC colonies was counted (from 190 cells sorted). PGP1 hiPSC lines created using retroviral vectors or non-integrating methods were both tested.
Pluripotency of iPSC cultures was verified by flow cytometry staining using anti-human Tra-1/60 PE (TRA-1-60, BD) and anti-human Oct3/4 eFluor 660 (EM92, eBioscience) with the fixation buffer sold under the trademark BD CYTOFIX™ and permeabilization buffer sold under the trademark PHOSFLOW™ Perm/Wash buffers. Human g-band karyotype analysis was done by Cell Line Genetics. Viable cell counts were measured with the cell analyzer sold under the trademark MUSE® Count & Viability Assay kit (EMD Millipore). Anti-human HLA-A2 APC (BB7.2) and anti-human HLA-BC PE (B1.23.2) were purchased from eBioscience. Human iPSC cultures were treated with 50 ng/ml recombinant interferon gamma (eBioscience) for 2 days prior to HLA staining.
Plasmids were purified using the plasmid DNA purification kit sold under the trademark Qiagen ENDOFREE® Plasmid Maxi kit and nucleofected into iPSC cells using the Lonza 4D-Nucleofector X unit (Buffer P3, Program CB-150). For each 20 μl nucleofection reaction, 0.2-0.5×106 iPSC were transfected with up to 4 μg of plasmid DNA. Post-nucleofection, iPSC were plated onto solubilized basement membrane matrix secreted by Engelbreth-Holm-Swarm (EHS) mouse sarcoma cells sold under the trademark […]®-coated wells containing feeder-free cell culture medium sold under the trademark MTESR1™ media with 10 μM Y-27632 plus other chemical inhibitors when noted. Later experiments included 50 μM zVAD-fmk (Bachem) for 1 day and 10 μM SB203580 (Biovision) for 4-5 days post transfection (see FIGS. 5, 6, 11, and 12). For FIG. 6 (ssODN transfection), 200 ng/ml recombinant B 18R (eBioscience), was also added to the culture for 5 days post transfection.
The following inhibitors were added to the hiPSC culture at the concentrations and time periods indicated in the Examples below. • 1. p53 or Bax inhibitors: cyclic pifithrin α (StemCell Technologies); pifithrin (Tocris); peptide V5, peptide control, iMAC1 and iMAC2 (EMD Millipore); N-acetyl cysteine and 4-hydroxy TEMPO (TEMPOL) (Sigma). • 2.

Setting [3] is: 10 μM SB203580 added to hiPSC media after nucleofection.

Turning to `O=c1[nH]c(=S)[nH]c(N=Cc2ccccc2)c1N=Cc1ccccc1` [SCR7], the “mThy1 gene targeting efficiencies” value in the data set with human iPSC [1] is on record as “neither the DNA ligase IV inhibitor SCR7 (Maruyama et al., 2015) nor the β3-adrenergic receptor agonist L755507 (Yu et al., 2015) improved mThy1 gene targeting efficiencies”. Regarding VPMLK (peptide V5), the “mThy1 gene targeting in hiPSC” value with human iPSC [1] (200 μM peptide V5 in media for three days after nucleofection) is recorded as “only a very slight improvement in gene targeting”.

On to `COC(=O)CC[C@H](NC(=O)[C@H](CC(C)C)NC(=O)OCc1ccccc1)C(=O)N[C@@H](Cc1cnc[nH]1)C(=O)N[C@@H](CC(=O)OC)C(=O)CF` [zLEHD-fmk] (Cbz-LE(OMe)HD(OMe)-CH2F), for which the “toxicity to hiPSC” value with human iPSC [2] (after nucleofection, higher concentration than 25 μM (FIG. 10C)) is reported as “very toxic”; in the data set with human iPSC [2] (lower concentration, 25 μM) it was “did not show as much”. For `CC1(C)CC(O)CC(C)(C)N1[O]` [TEMPOL, 4-hydroxy TEMPO], the “mThy1 gene targeting in hiPSC” value in the data set with human iPSC [1] (50 μM TEMPOL in media for three days after nucleofection) is “no effect”. In the case of `COC(=O)CC[C@H](NC(=O)[C@H](C)NC(=O)OCc1ccccc1)C(=O)N[C@H](C(=O)N[C@@H](CC(=O)OC)C(=O)CF)C(C)C` [zAEVD-fmk] (Cbz-AE(OMe)VD(OMe)-CH2F), in the data set with human iPSC [2], the “rescue of hiPSC from cell death (anoikis) after nucleofection” value (from here on “rescue of hiPSC from cell death”) is on record as “prevented anoikis”. As for `CCCCCCNC(=O)Nc1ccc(S(=O)(=O)Nc2ccc(CCNC[C@H](O)COc3ccc(O)cc3)cc2)cc1` [L755507], in the data set with human iPSC [1], the “mThy1 gene targeting efficiencies” value was “neither the DNA ligase IV inhibitor SCR7 (Maruyama et al., 2015) nor the β3-adrenergic receptor agonist L755507 (Yu et al., 2015) improved mThy1 gene targeting efficiencies”. Regarding `Cc1ccc(C(=O)Cn2c3c(sc2=N)CCCC3)cc1` [Pifithrin α], in the data set on human iPSC [1] (20 μM pifithrin α in media for three days after nucleofection), the “mThy1 gene targeting in hiPSC” value is listed as “did not enhance hiPSC gene targeting”. Take `COC(=O)CC[C@H](NC(=O)[C@H](CC(=O)OC)NC(=O)OCc1ccccc1)C(=O)N[C@H](C(=O)N[C@@H](CC(=O)OC)C(=O)CF)C(C)C` [zDEVD-fmk]: the anoikis rescue entry in the data set on human iPSC [2] (lower concentration, 25 μM) was “did not show as much anoikis rescue”. For the same molecule, the “rescue of hiPSC from cell death” value in the data set with human iPSC [2] is reported as “prevented anoikis”. As to `COC(=O)C[C@H](NC(=O)[C@H](C)NC(=O)[C@@H](NC(=O)OCc1ccccc1)C(C)C)C(=O)CF` [zVAD(OMe)-fmk] (Cbz-Val-Ala-Asp(OMe)-CH2F), the “rescue of hiPSC from cell death” value in the data set on human iPSC [2] was “rescued cells transfected with an sgRNA, and also those transfected with the pUC19 control”. Turning to `C[S+]([O-])c1ccc(-c2nc(-c3ccncc3)c(-c3ccc(F)cc3)[nH]2)cc1` (stereo not shown) [SB203580], the cell survival result in the data set with human iPSC [2] (setting [3]) was “did not affect cell survival”. Also, the gene targeting efficiency entry with human iPSC [1] (setting [3]) is listed as “did enhance gene targeting efficiency”.
